ChEMBL document CHEMBL5356967, “Design, synthesis, evaluation and optimization of novel azole analogues as potent antifungal agents” (Bioorg Med Chem, 2024)
Values after ≈ are worked out from the molar mass of the structure shown.

Legend:
Type in all cases: functional
[1] = tested on: Candida parapsilosis; test: Antifungal activity against Candida parapsilosis 0306392 assessed as inhibition of fungal growth incubated for 24 hrs by broth microdilution method; settings: Lodderomyces parapsilosis
[2] = tested on: Candida albicans; test: Antifungal activity against Candida albicans Y0109 assessed as inhibition of fungal growth incubated for 24 hrs by broth microdilution method
[3] = tested on: Trichophyton rubrum; test: Antifungal activity against Trichophyton rubrum 0501124 assessed as inhibition of fungal growth incubated for 24 hrs by broth microdilution method
[4] = tested on: Candida tropicalis; test: Antifungal activity against Candida tropicalis 0370354 assessed as inhibition of fungal growth incubated for 24 hrs by broth microdilution method
[5] = tested on: Candida albicans; test: Antifungal activity against Candida albicans SC5314 assessed as inhibition of fungal growth incubated for 24 hrs by broth microdilution method
[6] = tested on: Nannizzia gypsea; test: Antifungal activity against Microsporum gypseum 0310388 assessed as inhibition of fungal growth incubated for 24 hrs by broth microdilution method
[7] = tested on: Cryptococcus neoformans; test: Antifungal activity against Cryptococcus neoformans ATCCBLS108 assessed as inhibition of fungal growth incubated for 72 hrs by broth microdilution method
[8] = tested on: Aspergillus fumigatus; test: Antifungal activity against Aspergillus fumigatus 0504656 assessed as inhibition of fungal growth incubated for 48 hrs by broth microdilution method
[9] = tested on: Candida albicans; test: Antifungal activity against fluconazole-resistant Candida albicans 904 assessed as inhibition of fungal growth incubated for 24 hrs by broth microdilution method
[10] = tested on: Candida albicans; test: Antifungal activity against fluconazole-resistant Candida albicans 901 assessed as inhibition of fungal growth incubated for 24 hrs by broth microdilution method
[11] = tested on: Candida albicans; test: Potency index, ratio of Ketoconazole MIC80 to test compound MIC80 for antifungal activity against Candida albicans Y0109 assessed as inhibition of fungal growth incubated for 24 hrs by broth microdilution method
[12] = tested on: Candida albicans; test: Potency index, ratio of Fluconazole MIC80 to test compound MIC80 for antifungal activity against Candida albicans Y0109 assessed as inhibition of fungal growth incubated for 24 hrs by broth microdilution method
[13] = tested on: Candida albicans; test: Potency index, ratio of Fluconazole MIC80 to test compound MIC80 for antifungal activity against Candida albicans SC5314 assessed as inhibition of fungal growth incubated for 24 hrs by broth microdilution method
[14] = tested on: Candida albicans; test: Potency index, ratio of Ketoconazole MIC80 to test compound MIC80 for antifungal activity against Candida albicans SC5314 assessed as inhibition of fungal growth incubated for 24 hrs by broth microdilution method

Compound	MIC80 [1] [µg/mL]	MIC80 [2] [µg/mL]	MIC80 [3] [µg/mL]	MIC80 [4] [µg/mL]	MIC80 [5] [µg/mL]	MIC80 [6] [µg/mL]	MIC80 [7] [µg/mL]	MIC80 [8] [µg/mL]	MIC80 [9] [µg/mL]	MIC80 [10] [µg/mL]	Ratio [11]	Ratio [12]	Ratio [13]	Ratio [14]
Oc1ccc([C@@]2(Cn3ccnc3)OC[C@H](Cn3cc(C4CC4)nn3)O2)c(F)c1 (mixture of isomers)	0.25	0.063	4	0.25	0.25	0.125	0.25	16	–	–	–	–	–	–
Oc1ccc([C@@]2(Cn3ccnc3)OC[C@H](Cn3cc(COc4ccccc4)nn3)O2)c(F)c1 (mixture of isomers)	0.125	0.063	1	0.125	0.063	0.25	0.063	16	–	–	–	–	–	–
CNCCc1cn(C[C@H]2CO[C@](Cn3ccnc3)(c3ccc(O)cc3F)O2)nn1 (mixture of isomers)	0.25	0.063	1	0.25	0.125	0.25	0.125	> 64	–	–	–	–	–	–
CCCN(CCC)CCc1cn(C[C@H]2CO[C@](Cn3ccnc3)(c3ccc(O)cc3F)O2)nn1 (mixture of isomers)	0.25	0.016	0.125	1	0.016	0.125	0.125	> 64	> 64	> 64	64	16	16	64
CCCCCOc1ccc(-c2cn(C[C@H]3CO[C@](Cn4ccnc4)(c4ccc(O)cc4F)O3)nn2)cc1 (mixture of isomers)	0.125	0.016	0.5	1	0.016	0.25	0.063	16	> 64	> 64	64	16	16	64
CC1CCN(CCc2cn(C[C@H]3CO[C@](Cn4ccnc4)(c4ccc(O)cc4F)O3)nn2)CC1 (mixture of isomers)	0.125	0.063	1	0.25	0.016	0.25	0.063	> 64	–	–	–	–	–	–
Oc1ccc([C@@]2(Cn3ccnc3)OC[C@H](Cn3cc(CCN4CCC(O)CC4)nn3)O2)c(F)c1 (mixture of isomers)	0.125	0.063	0.25	0.25	0.016	0.125	0.125	16	–	–	–	–	–	–
Oc1ccc([C@@]2(Cn3ccnc3)OC[C@H](Cn3cc(CCN4CCCC4)nn3)O2)c(F)c1 (mixture of isomers)	0.125	0.063	0.25	0.25	0.063	0.5	0.063	16	–	–	–	–	–	–
Oc1ccc([C@@]2(Cn3ccnc3)OC[C@H](Cn3cc(C(O)c4ccccc4)nn3)O2)c(F)c1 (mixture of isomers)	0.125	0.063	1	0.125	0.125	0.25	0.063	> 64	–	–	–	–	–	–
CCN(CC)CCc1cn(C[C@H]2CO[C@](Cn3ccnc3)(c3ccc(O)cc3F)O2)nn1 (mixture of isomers)	0.125	0.016	0.25	0.125	0.016	0.125	0.063	16	> 64	> 64	64	16	16	64
Oc1ccc([C@@]2(Cn3ccnc3)OC[C@H](Cn3cc(CCNC4CC4)nn3)O2)c(F)c1 (mixture of isomers)	0.25	0.063	0.125	0.125	0.125	0.25	0.125	> 64	–	–	–	–	–	–
CCC(C)n1ncn(-c2ccc(N3CCN(c4ccc(OCC5COC(Cn6cncn6)(c6ccc(Cl)cc6Cl)O5)cc4)CC3)cc2)c1=O (configuration not stated) [ITRACONAZOLE]	0.25 (≈ 0.354 µM)	0.063 (≈ 0.0893 µM)	0.063 (≈ 0.0893 µM)	0.25 (≈ 0.354 µM)	0.25 (≈ 0.354 µM)	0.25 (≈ 0.354 µM)	0.063 (≈ 0.0893 µM)	1 (≈ 1.42 µM)	–	–	–	–	–	–
CC(=O)N1CCN(c2ccc(OC[C@@H]3CO[C@@](Cn4ccnc4)(c4ccc(Cl)cc4Cl)O3)cc2)CC1 [LEVOKETOCONAZOLE]	2 (≈ 3.76 µM)	1 (≈ 1.88 µM)	4 (≈ 7.53 µM)	32 (≈ 60.2 µM)	1 (≈ 1.88 µM)	16 (≈ 30.1 µM)	1 (≈ 1.88 µM)	> 64	> 64	> 64	–	–	–	–
C[C@@H](c1ncncc1F)[C@](O)(Cn1cncn1)c1ccc(F)cc1F [VORICONAZOLE]	0.016 (≈ 0.0458 µM)	0.016 (≈ 0.0458 µM)	0.063 (≈ 0.18 µM)	0.063 (≈ 0.18 µM)	0.016 (≈ 0.0458 µM)	0.063 (≈ 0.18 µM)	0.016 (≈ 0.0458 µM)	0.25 (≈ 0.716 µM)	–	–	–	–	–	–

Second part, led by results:

MIC80 [1] [µg/mL]	MIC80 [2] [µg/mL]	MIC80 [3] [µg/mL]	MIC80 [4] [µg/mL]	MIC80 [5] [µg/mL]	MIC80 [6] [µg/mL]	MIC80 [7] [µg/mL]	MIC80 [8] [µg/mL]	Compound	MIC80 [9] [µg/mL]	MIC80 [10] [µg/mL]	Ratio [11]	Ratio [12]	Ratio [13]	Ratio [14]
0.25	0.063	4	4	0.25	0.125	0.125	16	Oc1ccc([C@@]2(Cn3ccnc3)OC[C@H](Cn3cc(-c4ccccn4)nn3)O2)c(F)c1 (mixture of isomers)	–	–	–	–	–	–
2	0.063	2	4	0.125	2	0.25	> 64	CCCc1ccc(-c2cn(C[C@H]3CO[C@](Cn4ccnc4)(c4ccc(O)cc4F)O3)nn2)cc1 (mixture of isomers)	–	–	–	–	–	–
2	0.063	4	0.25	0.063	4	2	> 64	Cc1ccc(-c2cn(C[C@H]3CO[C@](Cn4ccnc4)(c4ccc(O)cc4F)O3)nn2)cc1 (mixture of isomers)	–	–	–	–	–	–
0.25	0.063	2	0.25	0.063	0.125	0.125	> 64	Cc1cccc(-c2cn(C[C@H]3CO[C@](Cn4ccnc4)(c4ccc(O)cc4F)O3)nn2)c1 (mixture of isomers)	–	–	–	–	–	–
0.125	0.063	0.25	0.5	0.125	0.125	0.125	> 64	Oc1ccc([C@@]2(Cn3ccnc3)OC[C@H](Cn3cc(-c4ccccc4)nn3)O2)c(F)c1 (mixture of isomers)	–	–	–	–	–	–
0.125	0.063	2	1	0.125	1	1	> 64	Oc1ccc([C@@]2(Cn3ccnc3)OC[C@H](Cn3cc(-c4cccc(F)c4)nn3)O2)c(F)c1 (mixture of isomers)	–	–	–	–	–	–
0.125	0.063	0.25	0.125	0.063	0.25	0.063	> 64	CC(C)(C)c1ccc(-c2cn(C[C@H]3CO[C@](Cn4ccnc4)(c4ccc(O)cc4F)O3)nn2)cc1 (mixture of isomers)	–	–	–	–	–	–
0.25	0.063	4	4	0.125	0.125	0.125	> 64	Oc1ccc([C@@]2(Cn3ccnc3)OC[C@H](Cn3cc(-c4ccc(F)cc4)nn3)O2)c(F)c1 (mixture of isomers)	–	–	–	–	–	–
0.125	0.063	0.25	1	0.125	0.125	0.125	16	N#CCc1ccc(-c2cn(C[C@H]3CO[C@](Cn4ccnc4)(c4ccc(O)cc4F)O3)nn2)cc1 (mixture of isomers)	–	–	–	–	–	–
0.125	0.063	0.5	0.25	0.063	0.25	0.063	> 64	COc1ccc(-c2cn(C[C@H]3CO[C@](Cn4ccnc4)(c4ccc(O)cc4F)O3)nn2)cc1 (mixture of isomers)	–	–	–	–	–	–
